Reference: ChEMBL document CHEMBL1147837, “Methyl 2-(2-(4-formylphenoxy)acetamido)-2-substituted acetate derivatives: a new class of acetylcholinesterase inhibitors” (Bioorg Med Chem Lett, 2007)
pIC50: −log10 of the molar value.

Legend:
[1] = biological target: Acetylcholinesterase (Torpedo californica, UniProt P04058); test: Inhibition of AChE
[2] = biological target: Butyrylcholinesterase (Equus caballus, UniProt Q9N1N9); test: Inhibition of BuChE in horse serum
[3] = Selectivity for Torpedo californica AChE over horse BuChE

Sequence of Acetylcholinesterase (P04058 whole entry): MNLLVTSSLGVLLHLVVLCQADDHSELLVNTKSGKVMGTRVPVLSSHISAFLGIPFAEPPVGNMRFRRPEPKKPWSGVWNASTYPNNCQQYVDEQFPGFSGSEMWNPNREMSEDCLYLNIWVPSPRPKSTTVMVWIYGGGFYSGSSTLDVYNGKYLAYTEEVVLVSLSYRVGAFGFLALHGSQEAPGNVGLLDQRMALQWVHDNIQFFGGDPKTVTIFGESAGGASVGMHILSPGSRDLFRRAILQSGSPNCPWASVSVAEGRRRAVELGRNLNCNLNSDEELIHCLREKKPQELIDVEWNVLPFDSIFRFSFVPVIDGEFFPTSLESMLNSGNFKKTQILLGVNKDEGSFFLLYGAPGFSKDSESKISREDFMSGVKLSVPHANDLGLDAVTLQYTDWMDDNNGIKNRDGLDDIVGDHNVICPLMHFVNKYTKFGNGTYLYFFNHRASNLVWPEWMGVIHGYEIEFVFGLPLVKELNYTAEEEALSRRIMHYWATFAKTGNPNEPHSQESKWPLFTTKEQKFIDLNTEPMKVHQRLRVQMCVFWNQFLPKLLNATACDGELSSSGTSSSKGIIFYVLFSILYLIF
Sequence of Butyrylcholinesterase (Q9N1N9 whole entry): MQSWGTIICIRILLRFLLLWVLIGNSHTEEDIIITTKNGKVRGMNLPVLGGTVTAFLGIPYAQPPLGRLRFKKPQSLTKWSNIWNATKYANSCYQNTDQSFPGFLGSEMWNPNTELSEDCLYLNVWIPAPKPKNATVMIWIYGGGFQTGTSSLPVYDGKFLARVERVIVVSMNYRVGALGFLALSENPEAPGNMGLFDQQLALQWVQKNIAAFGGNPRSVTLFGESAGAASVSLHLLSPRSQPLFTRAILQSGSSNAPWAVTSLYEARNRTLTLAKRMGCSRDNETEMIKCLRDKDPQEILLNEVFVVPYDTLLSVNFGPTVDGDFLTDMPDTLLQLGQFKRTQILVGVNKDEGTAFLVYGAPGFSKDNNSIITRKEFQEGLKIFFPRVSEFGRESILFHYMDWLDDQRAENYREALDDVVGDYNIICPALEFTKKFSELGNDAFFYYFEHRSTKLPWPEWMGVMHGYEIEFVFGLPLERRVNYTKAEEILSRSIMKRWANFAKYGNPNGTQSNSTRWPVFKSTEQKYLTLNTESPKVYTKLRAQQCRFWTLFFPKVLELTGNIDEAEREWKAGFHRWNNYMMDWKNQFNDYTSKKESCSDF

SMILES: COC(=O)C(C)NC(=O)COc1ccc(C=O)cc1 (stereo not drawn)
- pIC50 [1]: 6.72

SMILES: O=Cc1ccc(O)cc1 [4-HYDROXYBENZALDEHYDE]
- pIC50 [1]: < 3.00

SMILES: COC(=O)C(Cc1c[nH]c2ccccc12)NC(=O)COc1ccc(C=O)cc1 (stereo not drawn)
- pIC50 [1]: 6.55
- pIC50 [2]: 4.47
- Ratio IC50 [3]: 121

SMILES: COC(=O)CNC(=O)COc1ccc(C=O)cc1
- pIC50 [1]: 4.00

SMILES: COC(=O)C(Cc1ccccc1)NC(=O)COc1ccc(C=O)cc1 (stereo not drawn)
- pIC50 [1]: 5.30

SMILES: COC(=O)CCC(NC(=O)COc1ccc(C=O)cc1)C(=O)OC (stereo not drawn)
- pIC50 [1]: < 3.70
